Measured values published in patent US10391070B2, “Compositions and methods for treating neurological diseases or injury” (MUSC FOUNDATION FOR RESEARCH DEVELOPMENT, priority 2012, dated 2019).

Experiments:
Assay type in all cases: cell-based, mouse
[1] = tested on: HT22 cells; assay: Glutathione determination in glutamate-treated cells; conditions: HT22, 10 mM glutamate 8 hrs, 500 nM
Procedure: The content of total glutathione (reduced and oxidized) in the supernatant of cell homogenate was measured using the glutathione assay kit (Cayman Chemical) in microtiter plate assay, which utilizes an enzymatic recycling method, using glutathione reductase, for the quantification of glutathione. The sulfhydryl group of glutathione reacted with 5,5′-dithiobis-2-nitrobenzoic acid (DTNB) and produced a yellow-colored 5-thio-2-nitrobenzoic acid (TNB), which was measured at 405 nm.

[2] = tested on: NQO-1; assay: qRT-PCR of antioxidant response gene NQO-1; conditions: HT22, 10 mM glutamate 16 hrs, relative to glutamate only
Procedure: HT22 cells were seeded onto cell culture treated 6-well plates at 3.0×10^5 cells per well in 2 mL of medium and maintained at 37° C. in 5% CO2 overnight prior to the initiation of experimental treatments. Cells were subsequently treated with 1 mL of medium containing glutamate (monosodium glutamate, Sigma-Aldritch, 1 M stock concentration in media, to achieve a final concentration of 10 mM) plus inhibitors (stock in DMSO) and maintained at 37° C. in 5% CO2. After 16 hrs, the media was collected and the cells harvested by trypsanization. After centrifugation, pelleted cells were washed with cold Hanks' Balanced Salt Solution (HBSS Ca^2+/Mg^2+ Free; Invitrogen; KCl 5.33 mM, KH2PO4 0.441 mM, NaHCO3 4.17 mM, NaCl 137.93 mM, Na2HPO4 0.338 mM, D-Glucose 5.56 mM), qRT-PCR was used to detect HO-1, NQO-1, and PGAM5 mRNAs in the HT22 cells. […] Therefore β2-microglobulin was used as a reference gene (Barrionuevo and Burggren, 1999). HT22 cells were cultured as described for 16 hrs. Total RNAs were extracted using the RNEasy kit (Qiagen), and transcripts of interest were amplified by PCR using the 1-step Syber Green qRT-PCR kit (Quanta) and the following specific primers (Harvard PrimerBank; Integrated DNA Technologies): HO-1, 5′-[…]-3′ (SEQ ID NO:1) and 5′-[…]-3′ (SEQ ID NO:2); PGAM5, 5′-[…]-3′ (SEQ ID NO:3) and 5′-[…]-3′ (SEQ ID NO:4); NQO-1, 5′-[…]-3′ (SEQ ID NO:5) and 5′-[…]-3′ (SEQ ID NO:6); and β2-microglobulin, 5′-[…]-3′ (SEQ ID NO:7) and 5′-[…]-3′ (SEQ ID NO:8). Linearity of the primers was verified before use, and fold changes were calculated as previously described using the Livak method (Barrionuevo and Burggren, 1999).

[3] = tested on: HT22 cells; assay: Mitochondrial morphology and superoxide generation (MitoSOX, Mitotracker); conditions: HT22, high extracellular glutamate, co-treatment
Procedure: In order to evaluate the source of the ROS generation, fluorescence microscopy was used to image HT22 using the fluorogenic dyes Mitotracker Deep Red (DR) and MitoSOX Red (Invitrogen). Mitotracker DR is a cell permeant dye that accumulates in active, polarized mitochondria. […] Briefly, HT22 cells were seeded onto black walled 96-well plates at 5.0×10^3 cells per well in 75 μL of medium and maintained at 37° C. in 5% CO2 overnight prior to the initiation of experimental treatments. Cells were subsequently treated with 25 μL of medium containing glutamate (monosodium glutamate, Sigma-Aldrich, 1 M stock concentration in media, to achieve a final concentration of 10 mM) plus inhibitors (stock in DMSO) and maintained at 37° C. in 5% CO2. After 8 hrs, MitoSOX Red (5 μM) and Mitotracker DR (10 nM) were added to achieve the indicated final concentrations. Cells were allowed to incubate for 20 minutes and then washed twice with Hanks Balanced Salt Solution (HBSS; Hyclone; CaCl2 1.26 mM, MgCl2-6H2O 0.493 mM, MgSO4-7H2O 0.407 mM, KCl 5.33 mM, KH2PO4 0.441 mM, NaHCO3 4.17 mM, NaCl 137.93 mM, Na2HPO4 0.338 mM, D-Glucose 5.56 mM), with a final addition of 100 μL of HBSS in which the cells were visualized. Cells were immediately visualized using an InCell 2000 Analyzer (GE) with a 40× objective and a Cy5/Cy5 excitation/emission filter set for Mitotracker DR and a YFP/Cy3 filter set for MitoSOX Red. Image processing was performed using ImageJ, and for all images, the microscope and image processing settings, such as levels, brightness, contrast, and exposure time were held constant across all treatment conditions.

[4] = tested on: Drp1; assay: Western blot, phosphorylation of Drp1 (Ser637); conditions: HT22, 10 mM glutamate 16 hrs
Procedure: (§1) HT-22 cells were cultured and treated as described above for the qRT-PCR experiments. After 16 hrs, the media was collected and the cells harvested by trypsanization. After centrifugation, pelleted cells were washed with cold HBSS Ca^2+/Mg^2+ Free, followed by lysis with a low salt lysis buffer (50 mM Tris-HCl, pH 7.4, 150 mM NaCl, 10% glycerol, 0.5 Triton X-100, 1× protease and phosphatase inhibitor cocktail) for 30 min, followed by a 15-s sonication pulse at 30 W. For Western blot analysis, the cell lysates were denatured with LDS loading buffer (Invitrogen) and run on Nupage 4-12% Tris-glysine gradient gels (Invitrogen) after centrifugation. Phosphorylated Drp1 (Ser637) (Cell Signaling) and total Drp1 (C5) (Santa Cruz), PGAM5 (K16) (Santa Cruz Biotechnology), Actin (Sigma-Aldritch) and alpha-Tubulin (Santa Cruz Biotechnology) were assessed with primary antibody, followed by rabbit, mouse, or goat IgG-HRP secondary antibody. The blot was developed using Pierce Thermo Dura-ECL reagent (Thermo-Fisher) and visualized using an ImageQuant LAS 4000 (GE). Digital images of membranes were quantified by computer-assisted densitometry using Image J 1.42q (National Institutes of Health, MD).

[5] = tested on: PGAM5; assay: Western blot, PGAM5 cleavage; conditions: HT22, glutamate
Procedure: as §1

Compound | depletion of total cellular GSH [1] | NQO-1 gene expression [2] | mitochondrial superoxide generation and mitochondrial fragmentation [3] | phosphorylation of Drp1 at Ser 637 ([4]; 250 and 125 nM) | increase in lower band (cleavage product) of PGAM5 ([5]; 125 nM) | phosphorylation of Drp1 at Ser 637 ([4]; 250 nM) | phosphorylation of Drp1 at Ser 637 ([4]; 500 nM) | increase in lower band (cleavage product) of PGAM5 ([5]; 500 nM)
O=C1C=C(NCc2ccccc2)C(=O)c2ccccc21 [Compound 2j, 2-(benzylamino)naphthalene-1,4-dione] | does not prevent GSH | did not affect NQO-1 expression | prevented these events | the phosphorylation state is maintained | completely attenuated |  |  | 
O=C1C=C(NCc2cccc(Cl)c2)C(=O)c2ccccc21 [Compound 2q, 2-((3-chlorobenzyl)amino)naphthalene-1,4-dione] | does not prevent GSH | did not affect NQO-1 expression | prevented these events | the phosphorylation state is maintained | completely attenuated |  |  | 
menaquinones [VK2, reference compound] | does not prevent GSH | did not affect NQO-1 expression | prevented these events |  |  | less effective | the phosphorylation state is maintained | completely attenuated
